Measured values taken from patent publication US20220409593A1 (ARKUDA THERAPEUTICS, priority 2019, published 2022).

These compounds were tested on secreted mouse PGRN (assay: progranulin induction cellular assay (PGRN assay, ELISA-based readout)). Details: Mus musculus, progranulin secreted into cell culture medium, cells named in method: mouse primary microglia, primary cortical neurons, BV-2.
Procedure: Cellular Assays: To measure the efficacy of compounds, a progranulin induction cellular assay in mouse primary microglia (pMG), primary cortical neurons, and BV-2 cell lines is used. BV-2 cells are split the day before plating into a 96well plate format at approximately 80%. Cells should be plated the day before and allowed for 1 hour attachment period and for 16 hour incubation. Levels of progranulin secreted into the cell culture medium or retained in the cell lysate can be quantified using an ELISA-based readout and measurement of secreted mouse PGRN in the medium was assessed by the methodology published by Ghidoni et al. 2012. Standard ELISA kits to measure PGRN are available from vendors such as Adipogen, R&D, and Biovendor.
Table D below presents the results of a PGRN assay as described above.
CN1CCCC2(CN=C(N3CCc4ccccc4[C@@H]3c3cccc(F)c3F)O2)C1 (mixture of isomers) [Compound 3042] gave an EC50 of 1030 nM.
For Fc1cccc([C@@H]2c3ccccc3CCN2C2=NC[C@@]3(CN4CCC3CC4)O2)c1F (single isomer, unassigned) [Compound 3018], the EC50 was over 10000 nM.
Compound CN1CCC[C@]2(CN=C(N3CCc4ccccc4[C@H]3c3cc(F)cc(F)c3)O2)C1 (single isomer, unassigned) [Compound 3012] has an EC50 of over 10000 nM.
In the case of CN1CCC[C@@]2(CN=C(N3CCc4ccccc4[C@H]3c3cc(F)c(F)c(F)c3)O2)C1 (single isomer, unassigned) [Compound 3005], the EC50 is reported as over 10000 nM.
In the case of O[C@H]1CNC[C@]12CN=C(N1CCc3ccccc3[C@@H]1c1ccc(F)cc1)O2 [Compound 3177, (5S,9S)-2-((S)-1-(4-fluorophenyl)-3,4-dihydroisoquinolin-2(1H)-yl)-1-oxa-3,7-diazaspiro[4.4]non-2-en-9-ol], the EC50 is reported as 181 nM.
Fc1ccc([C@H]2c3ccccc3CCN2C2=N[C@]3(CCCNC3)CO2)cc1 (single isomer, unassigned) [Compound 3053] was tested, and the EC50 was 250 nM.
Work on NC[C@H]1C[C@@]2(CN=C(N3CCc4ccccc4[C@@H]3c3ccc(F)cc3)O2)C1 (single isomer, unassigned) [Compound 3160] yielded an EC50 of 993 nM.
Compound O=C1N[C@@]2(CCCNC2)N=C1N1CCc2ccccc2[C@@H]1c1ccc(F)cc1 [Compound 3148] has an EC50 of 85.3 nM.
Compound Fc1ccc([C@H]2c3ccccc3CCN2C2=N[C@]3(CO2)CN2CCC3CC2)cc1 (single isomer, unassigned) [Compound 3057A] has an EC50 of 231 nM.
Work on Fc1ccc([C@H]2c3ccccc3CCN2C2=N[C@H]([C@@H]3CCNC3)CO2)cc1 (single isomer, unassigned) [Compound 3071] yielded an EC50 of 429 nM.
Work on CN1CCC[C@@]2(CN=C(N3CCc4ccccc4[C@@H]3c3ccc(F)cc3F)O2)C1 (single isomer, unassigned) [Compound 3015] yielded an EC50 of 880 nM.
For Fc1ccc([C@H]2c3ccccc3CCN2C2=NC[C@]3(CN4CCC3CC4)O2)cc1 (single isomer, unassigned) [Compound 3000], the EC50 was 250 nM.
Compound Fc1ccc([C@H]2c3ccccc3CCN2C2=NC[C@@]3(CCN(CC(F)(F)F)C3)O2)cc1 [Compound 3172, (S)-2-((S)-1-(4-fluorophenyl)-3,4-dihydroisoquinolin-2(1H)-yl)-7-(2,2,2-trifluoroethyl)-1-oxa-3,7-diazaspiro[4.4]non-2-ene] has an EC50 of 1520 nM.
Work on CN1CC[C@@H](F)[C@]2(CN=C(N3CCc4ccccc4[C@@H]3c3ccc(F)cc3)O2)C1 (single isomer, unassigned) [Compound 3045] yielded an EC50 of 4490 nM.
In the case of CN1CCC[C@]2(CN=C(N3CCc4ccccc4[C@@H]3c3ccc(F)c(F)c3)O2)C1 (stereo in doubt) [Compound 3029], the EC50 is reported as 4020 nM.
Fc1ccc([C@H]2c3ccccc3CCN2C2=NC[C@@H]([C@H]3CCNC3)O2)cc1 (single isomer, unassigned) [Compound 3065] was tested, and the EC50 was 244 nM.
Compound CN1CC[C@@]2(CN=C(N3CCc4ccccc4[C@@H]3c3ccc(F)cc3)O2)C1 [Compound 3167, (S)-2-((S)-1-(4-fluorophenyl)-3,4-dihydroisoquinolin-2(1H)-yl)-7-methyl-1-oxa-3,7-diazaspiro[4.4]non-2-ene] has an EC50 of 176 nM.
Fc1ccc([C@H]2c3ccccc3CCN2C2=NC[C@H](C34CCN(CC3)CC4)O2)cc1 [Compound 3047, 2-((S)-1-(4-fluorophenyl)-3,4-dihydroisoquinolin-2(1H)-yl)-5-(quinuclidin-4-yl)-4,5-dihydrooxazole] gave an EC50 of over 10000 nM.
Compound Fc1ccc([C@H]2c3ccccc3CCN2C2=NC[C@]3(CCCNC3)O2)cc1 [Compound 3052] has an EC50 of 440 nM.
With Fc1cccc([C@H]2c3ccccc3CCN2C2=NC[C@@]3(CN4CCC3CC4)O2)c1 (stereo in doubt) [Compound 3020] the EC50 was 9980 nM.
Compound N[C@@H]1CC[C@@]2(CN=C(N3CCc4ccccc4[C@@H]3c3ccc(F)cc3)O2)C1 (single isomer, unassigned) [Compound 3081] has an EC50 of 119 nM.
Fc1ccc([C@H]2c3ccccc3CCN2C2=NC[C@@H](C3(F)CNC3)O2)cc1 (single isomer, unassigned) [Compound 3154] gave an EC50 of 132 nM.
Compound c1ccc([C@H]2c3ccccc3CCN2C2=NC[C@]3(CCNC3)O2)cc1 (single isomer, unassigned) [Compound 3166] has an EC50 of 163 nM.
With CN1CCC[C@]2(CN=C(N3CCc4ccccc4[C@@H]3c3cc(F)cc(F)c3)O2)C1 (single isomer, unassigned) [Compound 3010] the EC50 was 6390 nM.
In the case of N[C@H]1C[C@@]2(CN=C(N3CCc4ccccc4[C@@H]3c3ccc(F)cc3)O2)C1 [Compound 3061, (S)-6-(1-(4-fluorophenyl)-3,4-dihydroisoquinolin-2(1H)-yl)-5-oxa-7-azaspiro[3.4]oct-6-en-2-amine], the EC50 is reported as 115 nM.
CN1CCC[C@@]2(CN=C(N3CCc4ccccc4[C@@H]3c3cc(F)cc(F)c3)O2)C1 (single isomer, unassigned) [Compound 3011] was tested, and the EC50 was 7640 nM.
For Fc1ccc([C@H]2c3ccccc3CCN2C2=NC[C@@]3(CN4CCC3CC4)O2)cc1F (stereo in doubt) [Compound 3024], the EC50 was 3960 nM.
Work on Fc1ccc([C@H]2c3ccccc3CCN2C2=NO[C@@]3(C2)CN2CCC3CC2)cc1 [Compound 3028, 2((S)-1-(4-fluorophenyl)-3,4-dihydroisoquinolin-2(1H)-yl)-4-4-azaspiro[bicyclo[2.2.2]octane-2,5oxazole]] yielded an EC50 of over 3160 nM.
For Fc1cc(F)cc([C@@H]2c3ccccc3CCN2C2=NC[C@@]3(CN4CCC3CC4)O2)c1 (stereo in doubt) [Compound 3038], the EC50 was 3910 nM.
For Fc1ccc([C@@H]2c3ccccc3CCN2C2=NC[C@]3(CN4CCC3CC4)O2)cc1F (stereo in doubt) [Compound 3027], the EC50 was 2080 nM.
For Fc1ccc([C@H]2c3ccccc3CCN2C2=NC[C@@]3(CNC[C@@H]3F)O2)cc1 (single isomer, unassigned) [Compound 3170], the EC50 was 538 nM.
Fc1ccc([C@H]2c3ccccc3CCN2C2=NC3(CCNCC3)CO2)cc1 [Compound 3056, (S)-2-(1-(4-fluorophenyl)-3,4-dihydroisoquinolin-2(1H)-yl)-3-oxa-1,8-diazaspiro[4.5]dec-1-ene] gave an EC50 of 110 nM.
In the case of Fc1ccc([C@H]2c3ccccc3CCN2C2=NC[C@@]3(CCCNC3)O2)cc1 [Compound 3051], the EC50 is reported as 980 nM.
Compound NC[C@H]1C[C@]2(CN=C(N3CCc4ccccc4[C@@H]3c3ccc(F)cc3)O2)C1 (single isomer, unassigned) [Compound 3161] has an EC50 of 206 nM.
For Fc1ccc([C@H]2c3ccccc3CCN2C2=NC[C@]3(CN4CCC3(F)CC4)O2)cc1 (single isomer, unassigned) [Compound 3033], the EC50 was 2380 nM.
Fc1ccc([C@H]2c3ccccc3CCN2C2=N[C@@H](C3(F)CNC3)CO2)cc1 (single isomer, unassigned) [Compound 3156] was tested, and the EC50 was 99.8 nM.
Work on Fc1ccc([C@H]2c3ccccc3CCN2C2=NC[C@@H](C3CNC3)O2)cc1 (single isomer, unassigned) [Compound 3070] yielded an EC50 of 96.6 nM.
Compound Fc1cc(F)cc([C@H]2c3ccccc3CCN2C2=NC[C@]3(CN4CCC3CC4)O2)c1 (stereo in doubt) [Compound 3037] has an EC50 of 1000 nM.
With Fc1ccc([C@H]2c3ccccc3CCN2C2=NC[C@@]3(CN4CCC3CC4)O2)c(F)c1 (single isomer, unassigned) [Compound 3016] the EC50 was 860 nM.
Fc1ccc([C@H]2c3ccccc3CCN2C2=NC[C@@H]([C@H]3CCCNC3)O2)cc1 (single isomer, unassigned) [Compound 3077] gave an EC50 of 475 nM.
Compound CN1CCC[C@@]2(CN=C(N3CCc4ccccc4[C@@H]3c3ccc(F)c(F)c3)O2)C1 (stereo in doubt) [Compound 3030] has an EC50 of 9650 nM.
For N[C@@H]1CC[C@@]2(COC(N3CCc4ccccc4[C@@H]3c3ccc(F)cc3)=N2)C1 [Compound 3082, (5S,7R)-2-((S)-1-(4-fluorophenyl)-3,4-dihydroisoquinolin-2(1H)-yl)-3-oxa-1-azaspiro[4.4]non-1-en-7-amine], the EC50 was 160 nM.
Work on CN1CCC[C@]2(CN=C(N3CCc4ccccc4[C@@H]3c3ccc(F)cc3F)O2)C1 (single isomer, unassigned) [Compound 3014] yielded an EC50 of 1680 nM.
In the case of Fc1ccc([C@@H]2c3ccccc3CCN2C2=NC[C@@]3(CN4CCC3CC4)O2)cc1F (stereo in doubt) [Compound 3026], the EC50 is reported as 310 nM.
O[C@H]1CNC[C@@]12CN=C(N1CCc3ccccc3[C@@H]1c1ccc(F)cc1)O2 [Compound 3178, (5R,9S)-2-((S)-1-(4-fluorophenyl)-3,4-dihydroisoquinolin-2(1H)-yl)-1-oxa-3,7-diazaspiro[4.4]non-2-en-9-ol] showed an EC50 of 249 nM.
With OCCN1CC[C@@]2(CN=C(N3CCc4ccccc4[C@@H]3c3ccc(F)cc3)O2)C1 [Compound 3175, 2-((S)-2-((S)-1-(4-fluorophenyl)-3,4-dihydroisoquinolin-2(1H)-yl)-1-oxa-3,7-diazaspiro[4.4]non-2-en-7-yl)ethan-1-ol] the EC50 was 181 nM.
Fc1ccc([C@H]2c3ccccc3CCN2C2=NC[C@@]3(CCNC3)O2)cc1 [Compound 3049] gave an EC50 of 19 nM.
In the case of Fc1ccc([C@H]2c3ccccc3CCN2C2=NCC3(CCNCC3)O2)cc1 [Compound 3060, (S)-2-(1-(4-fluorophenyl)-3,4-dihydroisoquinolin-2(1H)-yl)-1-oxa-3,8-diazaspiro[4.5]dec-2-ene], the EC50 is reported as 110 nM.

Same assay, conditions: progranulin secreted into cell culture medium, cells named in method: mouse primary microglia, primary cortical neurons, BV-2
In the case of Fc1cc(F)cc([C@H]2c3ccccc3CCN2C2=NC[C@]3(CN4CCC3CC4)O2)c1 (stereo in doubt) [Compound 3039], the EC50 is reported as 1050 nM.
With CN1CCC[C@]2(CN=C(N3CCc4ccccc4[C@@H]3c3cccc(F)c3)O2)C1 (single isomer, unassigned) [Compound 3006] the EC50 was 1000 nM.
